Experimental data from PMC5128878 (Scientific Reports, 2016).
“And” between values parts separate entries of the source, which are not always exact repeats. Equal entries are not always repeated. Where two headings read alike, the source gives them in different places.

What was measured:
α4β2 nAChR = molecular target: T1, α4β2 nAChR (Rattus norvegicus, UniProt P09483+P12390); test: cell-based; format: cell-based; details: for IC50: IC50 (95% CI), ACh 10 μM
T1 construct: expressed in transfected cells; host or cells: Xenopus laevis oocytes injected with cRNA
T1 sequence (P09483 31-630): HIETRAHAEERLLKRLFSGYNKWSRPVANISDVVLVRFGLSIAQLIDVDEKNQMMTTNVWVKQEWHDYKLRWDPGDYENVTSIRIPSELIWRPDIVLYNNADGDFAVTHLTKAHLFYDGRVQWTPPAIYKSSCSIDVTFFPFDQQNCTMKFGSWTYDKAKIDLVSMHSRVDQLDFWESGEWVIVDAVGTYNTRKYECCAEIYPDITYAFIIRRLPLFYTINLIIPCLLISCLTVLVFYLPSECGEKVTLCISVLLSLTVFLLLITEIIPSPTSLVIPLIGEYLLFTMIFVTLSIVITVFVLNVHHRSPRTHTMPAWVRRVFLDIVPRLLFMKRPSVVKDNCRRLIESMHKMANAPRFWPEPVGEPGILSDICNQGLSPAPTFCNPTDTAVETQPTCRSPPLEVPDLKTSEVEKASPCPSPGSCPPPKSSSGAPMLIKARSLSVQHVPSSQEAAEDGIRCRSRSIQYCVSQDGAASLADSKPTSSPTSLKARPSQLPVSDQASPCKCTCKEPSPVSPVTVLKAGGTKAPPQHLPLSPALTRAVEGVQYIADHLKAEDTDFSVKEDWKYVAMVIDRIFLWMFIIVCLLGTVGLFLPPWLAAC
T1 sequence (P12390 25-500): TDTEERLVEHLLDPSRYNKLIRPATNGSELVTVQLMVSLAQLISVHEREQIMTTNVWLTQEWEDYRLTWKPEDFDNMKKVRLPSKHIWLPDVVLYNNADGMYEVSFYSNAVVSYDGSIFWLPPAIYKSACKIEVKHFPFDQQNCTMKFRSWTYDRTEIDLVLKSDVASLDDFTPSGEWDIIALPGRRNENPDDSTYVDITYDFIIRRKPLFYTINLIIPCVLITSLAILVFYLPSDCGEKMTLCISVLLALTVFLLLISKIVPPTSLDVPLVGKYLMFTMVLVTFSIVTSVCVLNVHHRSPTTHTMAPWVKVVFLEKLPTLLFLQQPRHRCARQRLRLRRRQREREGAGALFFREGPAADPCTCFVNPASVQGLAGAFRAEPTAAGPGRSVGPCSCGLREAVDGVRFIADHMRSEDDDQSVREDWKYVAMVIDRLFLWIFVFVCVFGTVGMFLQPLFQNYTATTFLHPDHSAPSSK
Protocol: (§1) cDNA clones of rat neuronal nAChR subunits (α3, α4, β2 and β4) and mouse muscle subunits (α1, β1, γ and δ) were from the Salk Institute for Biological Studies (Professor Stephen Heinemann). The human α7 and RIC-3 cDNAs were provided by Professor David Sattelle (University College London).
(§2) Oocytes isolated from mature female Xenopus laevis were supplied by the European Xenopus Resource Centre, University of Portsmouth, UK. Oocytes were treated with collagenase (0.5 mg/ml, Sigma type 1 A) in Ca^2+-free solution (96 mM NaCl, 2 mM KCl, 1 mM MgCl2, 5 mM HEPES, 2.5 mM Na-pyruvate, 100 U/mL penicillin, 0.1 mg/mL streptomycin, pH 7.5) with shaking at 19 °C to defolliculate and remove the connective tissue surrounding the cells. After separation, oocytes were washed 7 times with modified Barth’s solution (96 mM NaCl, 2 mM KCl, 1.8 mM CaCl2, 1 mM MgCl2, 5 mM HEPES, 2.5 mM Na-pyruvate, 0.5 mM theophylline, 50 μg/mL gentamicin, pH 7.5) and kept at 19 °C in the same solution.
(§3) Healthy oocytes were injected with cRNA using a Nano-liter Injector (World Precision Instruments Inc, USA). Mixtures of nAChR subunit cRNAs were injected as follows; for heteromeric rat neuronal receptors a 1:1 ratio of α:β at 200 ng/μL; for mouse embryonic muscle a 1:1:1:1 ratio of α:β:γ:δ at 25 ng/μL; human α7 at 100 ng/μL was mixed with RIC-3 at 30 ng/μL. Each oocyte was injected with 50 nL of RNA solution. Injected oocytes were saved in Barth’s solution at 19 °C for two to three days for expression of the target protein. During this time oocytes were regularly checked to remove unhealthy ones.
(§4) Electrophysiological recordings were taken from nAChR-expressing oocytes by two-electrode voltage clamp using a Geneclamp 500 voltage clamp amplifier (Axon instruments, USA). An oocyte was placed in the perfusion chamber using a plastic Pasteur pipette and the bath was perfused (~5 mL/min) with fresh Frog Ringer solution (96 mM NaCl, 2 mM KCl, 1.8 mM CaCl2 and 5 mM HEPES, pH 7.5). Microelectrodes were pulled from borosilicate glass capillaries (Harvard GC150TF-10) using a programmable micropipette puller (Sutter P97, USA), and they had resistances between 0.5 and 2.5 MΩ when filled with 3 M KCl. The oocyte was voltage-clamped at holding potentials (VH) between −60 and −100 mV. […] Currents were recorded to a PC via a digidata 1200 analog-to-digital converter (Axon Instuments, USA) using WinEDR v3.2.6 Software (Dr John Dempster, University of Strathclyde, UK).
(§5) Graphpad Prism 6 was used for data analysis, graph plotting and curve fitting. All plotted points are the mean ± SEM obtained from 4–20 oocytes.

α4β2(V253F) nAChR = molecular target: T2, α4β2(V253F) nAChR (Rattus norvegicus, UniProt P09483+P12390, V277F); test: Two-electrode voltage clamp of ACh currents, α4β2(V253F) nAChRs expressed in Xenopus oocytes; format: cell-based; details: for IC50: α4β2(V253F), ACh 10 μM
T2 construct: expressed in transfected cells; host or cells: Xenopus laevis oocytes injected with cRNA
T2 sequence (P09483 31-630, stated change not applied): as the sequence (P09483 31-630) above
T2 sequence (P12390 25-500 V277F): as the sequence (P12390 25-500) above, with V253F counted along it
Protocol: as §1, §2, §3, §4, §5

α4β4 nAChR = molecular target: T3, α4β4 nAChR (Rattus norvegicus, UniProt P09483+P12392); test: cell-based; format: cell-based; details: for IC50: IC50 (95% CI), ACh 10 μM
T3 construct: expressed in transfected cells; host or cells: Xenopus laevis oocytes injected with cRNA
T3 sequence (P09483 31-630): as the sequence (P09483 31-630) above
T3 sequence (P12392 21-495): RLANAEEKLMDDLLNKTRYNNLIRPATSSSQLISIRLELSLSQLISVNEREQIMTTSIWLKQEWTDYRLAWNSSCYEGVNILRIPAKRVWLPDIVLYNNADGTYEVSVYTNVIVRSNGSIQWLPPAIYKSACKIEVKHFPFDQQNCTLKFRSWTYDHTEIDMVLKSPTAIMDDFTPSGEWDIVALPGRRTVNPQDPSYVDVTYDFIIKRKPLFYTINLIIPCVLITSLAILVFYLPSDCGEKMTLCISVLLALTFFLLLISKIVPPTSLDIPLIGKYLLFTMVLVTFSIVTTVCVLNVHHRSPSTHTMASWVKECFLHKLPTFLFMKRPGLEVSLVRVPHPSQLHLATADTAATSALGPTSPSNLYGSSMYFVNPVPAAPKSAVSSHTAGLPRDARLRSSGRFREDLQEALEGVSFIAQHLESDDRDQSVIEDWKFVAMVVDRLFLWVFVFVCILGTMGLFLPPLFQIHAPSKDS
Protocol: as §2, §3, §4, §5

α3β4 nAChR = molecular target: T4, α3β4 nAChR (Rattus norvegicus, UniProt P04757+P12392); test: cell-based; details: for IC50: IC50 (95% CI)
T4 construct: expressed in transfected cells; host or cells: Xenopus laevis oocytes injected with cRNA
T4 sequence (P04757 26-499): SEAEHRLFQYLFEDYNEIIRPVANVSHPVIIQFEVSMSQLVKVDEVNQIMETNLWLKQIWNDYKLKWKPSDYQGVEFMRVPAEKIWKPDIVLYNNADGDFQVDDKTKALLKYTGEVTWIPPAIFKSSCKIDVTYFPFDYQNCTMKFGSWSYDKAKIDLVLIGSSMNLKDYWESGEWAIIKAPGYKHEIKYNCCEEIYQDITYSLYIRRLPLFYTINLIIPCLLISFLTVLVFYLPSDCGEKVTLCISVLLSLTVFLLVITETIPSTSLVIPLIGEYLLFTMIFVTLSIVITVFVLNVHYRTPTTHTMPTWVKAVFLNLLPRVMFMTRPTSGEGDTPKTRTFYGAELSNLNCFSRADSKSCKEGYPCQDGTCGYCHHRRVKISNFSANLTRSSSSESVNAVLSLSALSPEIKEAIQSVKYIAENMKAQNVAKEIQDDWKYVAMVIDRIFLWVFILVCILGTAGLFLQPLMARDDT
T4 sequence (P12392 21-495): as the sequence (P12392 21-495) above
Protocol: as §2, §3, §4, §5

α3β4(F255V) nAChR = molecular target: T5, α3β4(F255V) nAChR (Rattus norvegicus, UniProt P04757+P12392, F275V); test: Two-electrode voltage clamp of ACh currents, α3β4(F255V) nAChRs expressed in Xenopus oocytes; format: cell-based; details: for IC50: α3β4(F255V), ACh 100 μM
T5 construct: expressed in transfected cells; host or cells: Xenopus laevis oocytes injected with cRNA
T5 sequence (P04757 26-499): as the sequence (P04757 26-499) above
T5 sequence (P12392 21-495 F275V): as the sequence (P12392 21-495) above, with F255V counted along it
Protocol: as §1, §2, §3, §4, §5

α7 nAChR = molecular target: T6, α7 nAChR (Homo sapiens, UniProt P36544); test: Two-electrode voltage clamp of ACh currents, α7 nAChRs (with RIC-3) expressed in Xenopus oocytes; format: cell-based; details: for IC50: IC50 (95% CI), ACh 100 μM
T6 construct: expressed in transfected cells; host or cells: Xenopus laevis oocytes injected with cRNA
T6 sequence (P36544 23-502): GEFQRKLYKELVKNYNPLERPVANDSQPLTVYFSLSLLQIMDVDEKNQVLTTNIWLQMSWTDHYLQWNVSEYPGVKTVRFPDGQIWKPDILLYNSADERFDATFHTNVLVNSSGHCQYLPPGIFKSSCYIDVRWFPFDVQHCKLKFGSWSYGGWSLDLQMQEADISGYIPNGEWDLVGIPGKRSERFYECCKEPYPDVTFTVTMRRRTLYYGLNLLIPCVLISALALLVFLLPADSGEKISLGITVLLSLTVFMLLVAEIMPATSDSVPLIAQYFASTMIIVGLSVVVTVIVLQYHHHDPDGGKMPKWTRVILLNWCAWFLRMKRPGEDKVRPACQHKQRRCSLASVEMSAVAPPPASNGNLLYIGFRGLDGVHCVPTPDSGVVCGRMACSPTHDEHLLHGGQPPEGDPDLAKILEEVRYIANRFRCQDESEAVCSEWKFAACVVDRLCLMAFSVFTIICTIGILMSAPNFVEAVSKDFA
Protocol: as §2, §3, §4, §5

α1β1γδ nAChR = molecular target: T7, α1β1γδ nAChR (Mus musculus, UniProt P02716+P04756+P04760+P09690); test: cell-based; format: cell-based; details: for IC50: IC50 (95% CI), ACh 10 μM
T7 construct: expressed in transfected cells; host or cells: Xenopus laevis oocytes injected with cRNA
T7 sequence (P04756 21-457): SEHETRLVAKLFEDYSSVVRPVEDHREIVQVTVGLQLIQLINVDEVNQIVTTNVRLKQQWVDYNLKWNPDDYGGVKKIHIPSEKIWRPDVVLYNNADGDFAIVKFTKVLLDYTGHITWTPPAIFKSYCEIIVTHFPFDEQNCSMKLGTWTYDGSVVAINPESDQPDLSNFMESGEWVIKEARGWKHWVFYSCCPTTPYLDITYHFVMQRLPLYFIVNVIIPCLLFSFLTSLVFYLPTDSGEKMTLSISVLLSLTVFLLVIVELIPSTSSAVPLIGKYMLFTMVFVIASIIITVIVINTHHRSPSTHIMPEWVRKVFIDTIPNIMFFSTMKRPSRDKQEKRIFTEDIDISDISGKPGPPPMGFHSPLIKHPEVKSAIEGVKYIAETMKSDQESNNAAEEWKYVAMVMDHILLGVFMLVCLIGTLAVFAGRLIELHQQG
T7 sequence (P09690 24-501): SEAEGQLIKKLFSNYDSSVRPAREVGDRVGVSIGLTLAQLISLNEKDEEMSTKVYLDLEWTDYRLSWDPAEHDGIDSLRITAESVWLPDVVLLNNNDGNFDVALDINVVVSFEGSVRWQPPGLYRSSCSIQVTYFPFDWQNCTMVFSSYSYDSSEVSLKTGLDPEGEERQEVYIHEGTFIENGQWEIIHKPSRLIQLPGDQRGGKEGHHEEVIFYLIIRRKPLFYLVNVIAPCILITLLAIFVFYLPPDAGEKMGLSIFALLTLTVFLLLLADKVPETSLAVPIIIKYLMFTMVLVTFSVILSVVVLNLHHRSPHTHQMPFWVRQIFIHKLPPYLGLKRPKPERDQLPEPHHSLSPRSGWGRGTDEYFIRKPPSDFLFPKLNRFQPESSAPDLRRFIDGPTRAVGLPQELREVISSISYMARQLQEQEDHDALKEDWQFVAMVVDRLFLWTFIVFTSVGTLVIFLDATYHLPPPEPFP
T7 sequence (P04760 23-519): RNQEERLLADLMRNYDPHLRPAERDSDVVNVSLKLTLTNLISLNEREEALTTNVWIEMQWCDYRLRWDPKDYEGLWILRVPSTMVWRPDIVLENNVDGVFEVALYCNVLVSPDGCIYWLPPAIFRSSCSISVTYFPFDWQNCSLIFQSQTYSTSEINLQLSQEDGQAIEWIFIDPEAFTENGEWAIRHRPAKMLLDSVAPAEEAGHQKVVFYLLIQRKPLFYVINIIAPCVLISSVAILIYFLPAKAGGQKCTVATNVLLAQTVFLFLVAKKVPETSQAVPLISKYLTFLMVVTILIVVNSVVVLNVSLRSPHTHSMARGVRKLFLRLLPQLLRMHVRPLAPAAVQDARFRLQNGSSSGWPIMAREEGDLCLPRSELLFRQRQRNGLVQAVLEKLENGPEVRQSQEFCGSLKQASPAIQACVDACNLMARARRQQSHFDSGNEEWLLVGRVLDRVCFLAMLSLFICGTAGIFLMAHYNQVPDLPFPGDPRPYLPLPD
T7 sequence (P02716 25-520): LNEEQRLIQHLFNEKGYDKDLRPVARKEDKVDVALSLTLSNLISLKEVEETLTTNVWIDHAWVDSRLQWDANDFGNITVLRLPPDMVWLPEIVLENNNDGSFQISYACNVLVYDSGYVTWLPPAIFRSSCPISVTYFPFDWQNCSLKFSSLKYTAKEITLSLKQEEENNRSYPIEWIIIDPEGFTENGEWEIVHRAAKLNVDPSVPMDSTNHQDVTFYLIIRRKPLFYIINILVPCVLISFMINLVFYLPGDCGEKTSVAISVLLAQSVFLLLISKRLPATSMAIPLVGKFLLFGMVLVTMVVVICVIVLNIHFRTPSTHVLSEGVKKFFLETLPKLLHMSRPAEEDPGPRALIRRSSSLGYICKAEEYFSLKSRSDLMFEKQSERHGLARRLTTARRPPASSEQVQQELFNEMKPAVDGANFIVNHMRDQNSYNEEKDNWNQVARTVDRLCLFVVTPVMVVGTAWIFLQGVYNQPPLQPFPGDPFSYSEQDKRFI
Protocol: as §2, §3, §4, §5

nAChRs = test: Two-electrode voltage clamp of Xenopus oocytes expressing nAChRs, statements across tested subtypes; format: cell-based
Protocol: as §1, §2, §3, §4, §5

[1] = test system: nAChRs expressed by PC12 cells; details: patch-clamp study of PC12 cells ref 14; cited from earlier work
α3β2 nAChR = α3β2 nAChR (Rattus norvegicus, UniProt P04757+P12390); test: Two-electrode voltage clamp of ACh currents, α3β2 nAChRs expressed in Xenopus oocytes; details: for IC50: IC50 (95% CI), ACh 30 μM
Sequence of α3β2 nAChR (P04757 26-499): as the sequence (P04757 26-499) above
Sequence of α3β2 nAChR (P12390 25-500): as the sequence (P12390 25-500) above
Protocol: as §2, §3, §4, §5

[2] = VH −60 mV, late current (1 min), read-out: IC50 (95% CI), Late
[3] = VH −60 mV, peak current, read-out: IC50 (95% CI), Peak
[4] = VH −80 mV, late current (1 min), read-out: IC50 (95% CI), Late
[5] = VH −80 mV, peak current, read-out: IC50 (95% CI), Peak
[6] = VH −100 mV, late current (1 min), read-out: IC50 (95% CI), Late
[7] = VH −100 mV, peak current, read-out: IC50 (95% CI), Peak
[8] = α3β4, after co-application of 10 μM toxin, ACh 100 μM, −80 mV

SMILES: CCCC(=O)N[C@@H](Cc1ccc(O)cc1)C(=O)NCCCNCCCCNCCCN [PhTX-343]
- IC50 (α4β2 nAChR; Late, α4β2, VH −60 mV, late current (1 min)): 460 nM
- IC50 (α4β2 nAChR; Late, α4β2, VH −80 mV, late current (1 min)): 310 nM
- IC50 (α4β2 nAChR; Late, α4β2, VH −100 mV, late current (1 min)): 80 nM
- IC50 (α4β2 nAChR; Peak, α4β2, VH −60 mV, peak current): 1900 nM
- IC50 (α4β2 nAChR; Peak, α4β2, VH −80 mV, peak current): 930 nM
- IC50 (α4β2 nAChR; Peak, α4β2, VH −100 mV, peak current): 140 nM
- recovery of peak current after six ACh applications (36 min) (α4β2 nAChR; α4β2, 10 μM toxin, −80 mV): very limited or absent
- decrease of peak current IC50 from −60 mV to VH −100 mV (α4β2 nAChR; α4β2, peak current): 14 fold
- times less sensitive than the most sensitive subtype (α4β2 nAChR; α4β2 vs α3β4 (for PhTX-12: α1β1γδ along with α3β4), late current IC50, −80 mV): 26 times
- reduction in late current IC50 as compared to α4β2 (α4β2(V253F) nAChR; α4β2(V253F) vs α4β2, late current, −80 mV): 2.6 fold
- change in peak current IC50 as compared to α4β2 (α4β2(V253F) nAChR; α4β2(V253F) vs α4β2, peak current, −80 mV): no significant change
- IC50 (α4β2(V253F) nAChR; [2]): 63 nM
- IC50 (α4β2(V253F) nAChR; [3]): 620 nM
- IC50 (α4β2(V253F) nAChR; [4]): 120 nM
- IC50 (α4β2(V253F) nAChR; [5]): 750 nM
- IC50 (α4β2(V253F) nAChR; [6]): 14 nM
- IC50 (α4β2(V253F) nAChR; [7]): 110 nM
- IC50 (α4β4 nAChR; Late, α4β4, VH −60 mV, late current (1 min)): 170 nM
- IC50 (α4β4 nAChR; Late, α4β4, VH −80 mV, late current (1 min)): 65 nM
- IC50 (α4β4 nAChR; Late, α4β4, VH −100 mV, late current (1 min)): 27 nM
- IC50 (α4β4 nAChR; Peak, α4β4, VH −60 mV, peak current): 970 nM
- IC50 (α4β4 nAChR; Peak, α4β4, VH −80 mV, peak current): 350 nM
- IC50 (α4β4 nAChR; Peak, α4β4, VH −100 mV, peak current): 290 nM
- recovery of peak current after six ACh applications (36 min) (α4β4 nAChR; α4β4, 10 μM toxin, −80 mV): very limited or absent
- decrease of peak current IC50 from −60 mV to VH −100 mV (α4β4 nAChR; α4β4, peak current): 3.3 fold
- times less sensitive than the most sensitive subtype (α4β4 nAChR; α4β4 vs α3β4 (for PhTX-12: α1β1γδ along with α3β4), late current IC50, −80 mV): 5 times
- late current IC50 lower than that for α4β2 (α4β4 nAChR; α4β4 vs α4β2, late current): ~5 fold
- peak current IC50 lower than that for α4β2 (α4β4 nAChR; α4β4 vs α4β2, peak current): roughly 3 fold
- IC50 (α3β4 nAChR; Late, α3β4, VH −60 mV, late current (1 min), ACh 100 μM): 88 nM
- IC50 (α3β4 nAChR; Late, α3β4, VH −80 mV, late current (1 min), ACh 100 μM): 12 nM
- IC50 (α3β4 nAChR; Late, α3β4, VH −100 mV, late current (1 min), ACh 100 μM): 7.7 nM
- IC50 (α3β4 nAChR; Peak, α3β4, VH −60 mV, peak current, ACh 100 μM): 290 nM
- IC50 (α3β4 nAChR; Peak, α3β4, VH −80 mV, peak current, ACh 100 μM): 80 nM
- IC50 (α3β4 nAChR; Peak, α3β4, VH −100 mV, peak current, ACh 100 μM): 77 nM
- recovery of late current after six ACh applications (36 min) (α3β4 nAChR; [8]): 69 % of control
- recovery of peak current after six ACh applications (36 min) (α3β4 nAChR; [8]): 82 % of control
- decrease of peak current IC50 from −60 mV to VH −100 mV (α3β4 nAChR; α3β4, peak current): 3.8 fold
- more potent than PhTX-12, peak current inhibition (α3β4 nAChR; α3β4, peak current, −80 mV): 33 fold
- potency higher as compared to α3β2, peak current (α3β4 nAChR; α3β4 vs α3β2, peak current, −80 mV): 115 fold
- increase in late current IC50 as compared to α3β4 (α3β4(F255V) nAChR; α3β4(F255V) vs α3β4, late current, −80 mV): did not see the expected increase
- reduction in peak current IC50 as compared to α3β4 (α3β4(F255V) nAChR; α3β4(F255V) vs α3β4, peak current, −80 mV): 2.1 fold
- IC50 (α3β4(F255V) nAChR; [2]): 74 nM
- IC50 (α3β4(F255V) nAChR; [3]): 310 nM
- IC50 (α3β4(F255V) nAChR; [4]): 12 nM
- IC50 (α3β4(F255V) nAChR; [5]): 38 nM
- IC50 (α3β4(F255V) nAChR; [6]): 5 nM
- IC50 (α3β4(F255V) nAChR; [7]): 17 nM
- IC50 (α7 nAChR; Late, α7, VH −60 mV, based on the area under the current trace (no stable late current)): 6560 nM
- IC50 (α7 nAChR; Late, α7, VH −80 mV, based on the area under the current trace (no stable late current)): 5060 nM
- IC50 (α7 nAChR; Late, α7, VH −100 mV, based on the area under the current trace (no stable late current)): 6770 nM
- IC50 (α7 nAChR; Peak, α7, VH −60 mV, peak current): 6710 nM
- IC50 (α7 nAChR; Peak, α7, VH −80 mV, peak current): 6480 nM
- IC50 (α7 nAChR; Peak, α7, VH −100 mV, peak current): 8800 nM
- voltage dependence of inhibition (α7 nAChR; homomeric α7, VH −60 to −100 mV): voltage-independent
- surmountability of peak current inhibition by increasing ACh concentrations (α7 nAChR; α7, 30 μM toxin, peak current, −80 mV): surmountable
- reversibility of inhibition (α7 nAChR; α7, 30 μM toxin, washing in frog Ringer solution, −80 mV): reversible after 6 min
- times less sensitive than the most sensitive subtype (α7 nAChR; α7 vs α3β4 (for PhTX-12: α1β1γδ along with α3β4), late current IC50, −80 mV): 422 times
- IC50 (α1β1γδ nAChR; Late, α1β1γδ, VH −60 mV, late current (1 min)): 18000 nM
- IC50 (α1β1γδ nAChR; Late, α1β1γδ, VH −80 mV, late current (1 min)): 12000 nM and 11900 nM
- IC50 (α1β1γδ nAChR; Late, α1β1γδ, VH −100 mV, late current (1 min)): 2440 nM
- IC50 (α1β1γδ nAChR; Peak, α1β1γδ, VH −60 mV, peak current): 27100 nM
- IC50 (α1β1γδ nAChR; Peak, α1β1γδ, VH −80 mV, peak current): 15100 nM
- IC50 (α1β1γδ nAChR; Peak, α1β1γδ, VH −100 mV, peak current): 3260 nM
- times less sensitive than the most sensitive subtype (α1β1γδ nAChR; α1β1γδ vs α3β4, late current IC50, −80 mV): 992 times and 1000 times
- surmountability of peak current inhibition by increasing ACh concentrations (α1β1γδ nAChR; α1β1γδ, 10 μM toxin, peak current, −80 mV): surmountable
- reversibility of inhibition (α1β1γδ nAChR; α1β1γδ, 100 μM toxin, washing in frog Ringer solution, −80 mV): reversible after 6 min
- effect on membrane current when applied alone (nAChRs; 100 μM applied alone, VH = −80 mV, oocytes expressing nAChRs): did not produce any effect on membrane current
- surmountability of late current inhibition by high ACh concentrations (nAChRs; all nAChRs including α7 and α1β1γδ, late current, −80 mV): not surmountable
- voltage dependence of inhibition (nAChRs; heteromeric nAChRs, VH −60 to −100 mV): strongly voltage-dependent
- reversibility of inhibition (nAChRs; heteromeric neuronal nAChRs, 10 μM toxin, −80 mV): irreversible
- IC50 [1]: 100 nM
- IC50 (α3β2 nAChR; Late, α3β2, VH −60 mV, late current (1 min)): 1590 nM
- IC50 (α3β2 nAChR; Late, α3β2, VH −80 mV, late current (1 min)): 1370 nM
- IC50 (α3β2 nAChR; Late, α3β2, VH −100 mV, late current (1 min)): 370 nM
- IC50 (α3β2 nAChR; Peak, α3β2, VH −60 mV, peak current): 64500 nM
- IC50 (α3β2 nAChR; Peak, α3β2, VH −80 mV, peak current): 9260 nM
- IC50 (α3β2 nAChR; Peak, α3β2, VH −100 mV, peak current): 3590 nM
- recovery of peak current after six ACh applications (36 min) (α3β2 nAChR; α3β2, 10 μM toxin, −80 mV): very limited or absent
- decrease of peak current IC50 from −60 mV to VH −100 mV (α3β2 nAChR; α3β2, peak current): 18 fold
- times less sensitive than the most sensitive subtype (α3β2 nAChR; α3β2 vs α3β4 (for PhTX-12: α1β1γδ along with α3β4), late current IC50, −80 mV): 114 times
